Laboratory results reported in patent US20180200257A1, “METHODS FOR THE TREATMENT OF INFLAMMATORY DISORDERS” (Galapagos NV, priority 2015, published 2018).

Assays:
[1] = tested on: subjects with moderately to severely active RA who have an inadequate response to methotrexate (MTX); assay: Study 2 (monotherapy) - DAS28(CRP) scores; type: in vivo, human
Source text: Randomized, double-blind, placebo-controlled, multicenter, phase IIb dose finding study of Compound 1 (dosed as a [Compound 1:HCl:3H2O]) administered for 24 weeks as monotherapy to subjects with moderately to severely active rheumatoid arthritis who have an inadequate response to methotrexate alone
Double-blind, placebo-controlled, monotherapy study in subjects with moderately to severely active RA who have an inadequate response to methotrexate (MTX) (oral or parenteral).
280 subjects randomized to one of 3 doses of Compound 1 (dosed as a [Compound 1:HCl:3H2O]) or to placebo, given once daily (q.d.).
Twelve weeks of treatment with Compound 1 (dosed as a [Compound 1:HCl:3H2O]) at 50 mg, 100 mg, or 200 mg q.d.; or placebo. At Week 12, all subjects on placebo and the subjects on the 50 mg dose who have not achieved 20% improvement in swollen joint count (SJC66) and tender joint count (TJC68) will be assigned to 100 mg q.d. in a blinded fashion and will continue treatment until Week 24. Subjects in the other groups will maintain their randomized treatment until Week 24.
The (DAS28(CRP)) is a system developed and validated by the European League Against Rheumatism (EULAR) to measure the progress and improvement of rheumatoid arthritis and has been extensively validated (Wells et al., 2008). The DAS28(CRP) scoring includes a 28 tender and swollen joint count, CRP measurement from blood analysis, and a general health assessment on a visual analog scale (Fransen et al., 2003).
DAS28(CRP) values range from 2.0 to 10.0, and more particularly reflect the following status: • Remission: DAS28(CRP) ≤2.6 • Low Disease activity: 2.6 <DAS28(CRP) ≤3.2 • Moderate Disease Activity: 3.2 <DAS28(CRP) ≤5.1 • High Disease Activity: DAS28(CRP) >5.1
In practice, the DAS28(CRP) measurement involves the evaluation 28 different joints including in the measurement (proximal interphalangeal joints (10 joints), metacarpophalangeal joints (10), wrists (2), elbows (2), shoulders (2), and knees (2)). When looking at these joints, both the number of joints with tenderness upon touching and swelling are counted.
Secondly, C-reactive protein level is measured.
Finally, the patient makes a subjective assessment of disease activity during the preceding 7 days on a scale between 0 and 100, where 0 is “no activity” and 100 is “highest activity possible”.
The DAS28(CRP) score is then calculated as follows:
Firstly, the patient is asked to make a vertical mark on a 100 mm Visual Analog Scale (VAS) corresponding to their general health or global disease activity on a touch screen to measure the VAS value, which is used in the formula below.
Secondly, a swollen and tender joint examination is then performed on the patient. The swollen and tender joints are recorded. From this examination are obtained the total amount of swollen joints (SJC) and the total amount of tender joints (TJC), which are used in the formula below.
Thirdly, C-reactive protein (CRP) levels are measured.
Finally, the values obtained above (VAS, TJC28, SJC28, and CRP) are computed into the following Formula to obtain the DAS28(CRP) score.
DAS28(CRP)=0.56*√{square root over (TJC28)}+0.28√{square root over (SJC28)}+[…] ln(CRP+1)+0.014*VAS
The improvement (decreases) in the DAS28(CRP) scores for each patient group at weeks 1, 2, 4, 8 and 12 is shown in Table LXXXVII and Table LXXXVIII below, together with the Hommel-corrected p-value for the pairwise comparisons of each group with placebo.
The number of subjects (N) provided in each groups corresponds to the number of subjects starting the study in each group, and the DAS28 (CRP) data reported below corresponds to the responding subjects continuing for the entire 24 weeks on their initial treatment course.

[2] = tested on: Subjects With Active Crohn's Disease With Evidence of Mucosal Ulceration; assay: Study 3 - CDAI component PRO2 score; type: in vivo, human; conditions: 200 mg
Source text: Double-Blind, Randomized, Placebo-Controlled, Multi-Centre Study to Investigate the Efficacy and Safety of Compound 1 in Subjects With Active Crohn's Disease With Evidence of Mucosal Ulceration. This is a double-blind, randomized, placebo-controlled, multi-centre Phase 2 study to investigate the efficacy and safety of Compound 1 administered once daily for the treatment of active CD with evidence of mucosal ulceration. The pharmacokinetics (including a PK substudy) and pharmacodynamics of Compound 1 and metabolite in CD will also be characterised. A total of 180 eligible subjects will be randomized to receive Compound 1 or placebo in addition to their stable background treatment (eg, corticosteroids, aminosalicylates, or CD-related antibiotics). The study will consist of 2 parts, with total treatment duration of 20 weeks. Randomization in Part 1 will be stratified according the subject's previous anti-TNF exposure/response, CRP level at Screening, and oral corticosteroid use at visit Day −1. After the first 10 weeks of treatment in Part 1, patients will be re-randomized for Part 2 as shown in the diagram below and will be stratified according to the subject's clinical response, previous anti-TNF exposure/response, and oral corticosteroid use at visit Day -1. [table] Within the CDAI score measurement parameters, the PRO2 score, based on the stool frequency (SF) and abdominal pain (AP) components of the CDAI, was also measured. The PRO2 score is calculated as follows: PRO2=7 x (mean daily number of liquid or very soft stools)+7×(mean daily abdominal pain score). This score provides a measurement of the symptoms improvement of the patient.

SMILES: O=C(Nc1nc2cccc(-c3ccc(CN4CCS(=O)(=O)CC4)cc3)n2n1)C1CC1 [Compound 1, cyclopropanecarboxylic acid {5-[4-(1,1-dioxo-thiomorpholin-4-ylmethyl)-phenyl]-[1,2,4]triazolo[1,5-a]pyridin-2-yl}-amide]
- DAS28(CRP) mean CFB (LOCF) ([1]; 50 mg q.d., week 1, 12 weeks results): −0.70
- DAS28(CRP) mean CFB (LOCF) ([1]; 50 mg q.d., week 2, 12 weeks results): −0.97
- DAS28(CRP) mean CFB (LOCF) ([1]; 50 mg q.d., week 2, 24 weeks results): −1.03
- DAS28(CRP) mean CFB (LOCF) ([1]; 50 mg q.d., week 4, 12 weeks results): −1.37
- DAS28(CRP) mean CFB (LOCF) ([1]; 50 mg q.d., week 4, 24 weeks results): −1.43
- DAS28(CRP) mean CFB (LOCF) ([1]; 50 mg q.d., week 12, 12 weeks results): −1.69
- % patients reaching low disease activity and/or remission at week 12 (LOCF) ([1]; 50 mg q.d., 12 weeks results): 24%
- % patients reaching low disease activity at week 12 (LOCF) ([1]; 50 mg q.d., 12 weeks results): 13%
- % patients reaching remission at week 12 (LOCF) ([1]; 50 mg q.d., 12 weeks results): 11%
- % patients reaching low disease activity and/or remission at week 24 (LOCF) ([1]; 50 mg q.d., 24 weeks results): 36%
- % patients reaching low disease activity at week 24 (LOCF) ([1]; 50 mg q.d., 24 weeks results): 17%
- % patients reaching remission at week 24 (LOCF) ([1]; 50 mg q.d., 24 weeks results): 19%
- DAS28(CRP) mean CFB (LOCF) ([1]; 50 mg q.d., week 8, 12 weeks results): −1.65
- DAS28(CRP) mean CFB (LOCF) ([1]; 50 mg q.d., week 8, 24 weeks results): −1.71
- DAS28(CRP) mean CFB (LOCF) ([1]; 100 mg q.d., week 1, 12 weeks results): −0.88
- DAS28(CRP) mean CFB (LOCF) ([1]; 100 mg q.d., week 2, 12 weeks results): −1.04
- DAS28(CRP) mean CFB (LOCF) ([1]; 100 mg q.d., week 2, 24 weeks results): −1.04
- DAS28(CRP) mean CFB (LOCF) ([1]; 100 mg q.d., week 4, 12 weeks results): −1.50
- DAS28(CRP) mean CFB (LOCF) ([1]; 100 mg q.d., week 4, 24 weeks results): −1.48
- DAS28(CRP) mean CFB (LOCF) ([1]; 100 mg q.d., week 12, 12 weeks results): −2.04
- % patients reaching low disease activity and/or remission at week 12 (LOCF) ([1]; 100 mg q.d., 12 weeks results): 28%
- % patients reaching low disease activity at week 12 (LOCF) ([1]; 100 mg q.d., 12 weeks results): 13%
- % patients reaching remission at week 12 (LOCF) ([1]; 100 mg q.d., 12 weeks results): 14%
- % patients reaching low disease activity and/or remission at week 24 (LOCF) ([1]; 100 mg q.d., 24 weeks results): 50%
- % patients reaching low disease activity at week 24 (LOCF) ([1]; 100 mg q.d., 24 weeks results): 29%
- % patients reaching remission at week 24 (LOCF) ([1]; 100 mg q.d., 24 weeks results): 21%
- DAS28(CRP) mean CFB (LOCF) ([1]; 100 mg q.d., week 8, 12 weeks results): −1.91
- DAS28(CRP) mean CFB (LOCF) ([1]; 200 mg q.d., week 1, 12 weeks results): −1.15
- DAS28(CRP) mean CFB (LOCF) ([1]; 200 mg q.d., week 2, 12 weeks results): −1.54
- DAS28(CRP) mean CFB (LOCF) ([1]; 200 mg q.d., week 2, 24 weeks results): −1.55
- DAS28(CRP) mean CFB (LOCF) ([1]; 200 mg q.d., week 4, 12 weeks results): −1.87
- DAS28(CRP) mean CFB (LOCF) ([1]; 200 mg q.d., week 4, 24 weeks results): −1.87
- DAS28(CRP) mean CFB (LOCF) ([1]; 200 mg q.d., week 12, 12 weeks results): −2.33
- % patients reaching low disease activity and/or remission at week 12 (LOCF) ([1]; 200 mg q.d., 12 weeks results): 45%
- % patients reaching low disease activity at week 12 (LOCF) ([1]; 200 mg q.d., 12 weeks results): 28%
- % patients reaching remission at week 12 (LOCF) ([1]; 200 mg q.d., 12 weeks results): 17%
- % patients reaching low disease activity and/or remission at week 24 (LOCF) ([1]; 200 mg q.d., 24 weeks results): 46%
- % patients reaching low disease activity at week 24 (LOCF) ([1]; 200 mg q.d., 24 weeks results): 19%
- % patients reaching remission at week 24 (LOCF) ([1]; 200 mg q.d., 24 weeks results): 28%
- DAS28(CRP) mean CFB (LOCF) ([1]; 200 mg q.d., week 8, 12 weeks results): −2.24
- PRO2 mean, baseline ([2]; Baseline, LOCF): 52.4
- PRO2 mean CFB, W 10 ([2]; week 10, LOCF): −21.9
- PRO2 remission (PRO2 ≤ 28) ([2]; week 10, LOCF): 55%
- PRO2 response (mean daily number of liquid or very soft stools ≤ 3, mean daily abdominal pain ≤ 1) ([2]; week 10, LOCF): 38%
- PRO2 remission (PRO2 ≤ 28) ([2]; week 10, NRI): 50%
- PRO2 response (mean daily number of liquid or very soft stools ≤ 3, mean daily abdominal pain ≤ 1) ([2]; week 10, NRI): 34%
